The values that follow come from publication PMC3260207, “Site-Directed Mutations and the Polymorphic Variant Ala160Thr in the Human Thromboxane Receptor Uncover a Structural Role for Transmembrane Helix 4” (PLoS ONE, 2012).

In test [1] the target is T1, TP A160V/F115A double mutant (Homo sapiens, UniProt P21731, A160V/F115A).
T1 sequence (P21731 1-343 F115A/A160V): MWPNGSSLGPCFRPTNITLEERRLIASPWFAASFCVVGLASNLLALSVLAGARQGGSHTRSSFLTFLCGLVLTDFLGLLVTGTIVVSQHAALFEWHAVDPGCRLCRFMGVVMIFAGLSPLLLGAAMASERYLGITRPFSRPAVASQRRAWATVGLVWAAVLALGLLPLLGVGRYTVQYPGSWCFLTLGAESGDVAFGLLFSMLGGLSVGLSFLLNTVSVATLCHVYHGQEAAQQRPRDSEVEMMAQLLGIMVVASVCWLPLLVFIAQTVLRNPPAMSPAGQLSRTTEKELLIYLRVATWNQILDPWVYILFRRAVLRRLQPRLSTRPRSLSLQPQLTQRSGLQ
The test can be described thus: Saturation radioligand binding with [3H] SQ 29,548, membranes. Also on record: expressed in transfected cells; host or cells: COS-1 cells (membranes), transient, pMT4. Particulars: picomoles of TP per milligram of total membrane protein, mean ± S.E. The procedure:
(§1) Amino acid substitutions were introduced into the synthetic TPα gene carried by the expression vector pMT4 as described previously, [29]. DNA sequences of all the mutated genes were verified by automated DNA sequencing. To minimize variations in transfection efficiency, the total amount transfected DNA was kept constant in all cases at 1 µg of DNA per 7×10^5 cells. The wild type TP or mutant genes were expressed in COS-1 cells using a DEAE-dextran based transient transfection method, [29], and in HEK293T cells using lipofectamine 2000 (Invitrogen). Except unless specified, the membranes prepared from COS-1 cells were used for radioligand binding assays and immunoblots. […] The protein concentration in the resuspended membrane pellet was determined using a modified DC protein assay kit from Bio-Rad Laboratories (Hercules, CA).
(§2) These were carried out in Buffer C for 60 min at room temperature, using 2 to 20 µg of membrane protein and different concentrations of [^3H] […] Filter-bound radioactivity was measured using a liquid scintillation counter. Equilibrium dissociation constants (Kd) were determined from saturation isotherms using PRISM software version 5.0 (GraphPad Software Inc, San Diego, CA, USA). The Ki values were calculated from the IC50, using the equation of Cheng and Prusoff by PRISM software version 5.0.

The target of test [2] is T2, TP F115A mutant (Homo sapiens, UniProt P21731, F115A).
T2 sequence (P21731 1-343 F115A): T1 sequence (P21731 1-343 F115A/A160V) with V160A
The test is described as above. More on the design: expressed in transfected cells; host or cells: COS-1 cells (membranes), transient, pMT4. To be noted: picomoles of TP per milligram of total membrane protein, mean ± S.E. The procedure: as §1, §2

Test [3] deals with T1, TP A160V/F115A double mutant. The test can be described thus: Intracellular calcium mobilization (Fluo-4NW) in transfected HEK293T cells. In kind it is cell-based. More on the design: expressed in transfected cells; transient, pMT4. To be noted: read-out: EC50 of agonist U46619 (calcium mobilized), transiently transfected HEK293T cells, mean ± S.E. The procedure: as §1, with “immunoblots. For intracellular calcium determination assays and immunofluorescence imaging, HEK293T cells were used.” for “immunoblots.”
(§3) Changes in intracellular calcium were measured by using the fluorescent calcium sensitive dye Fluo-4NW (Invitrogen). […] Dose–response curves were generated and EC50 values calculated by nonlinear regression analysis using PRISM software version 5.0 (GraphPad Software Inc, San Diego, CA) after subtracting the responses of mock-transfected cells stimulated with same concentrations of agonists.

Test [4] concerns the target T2, TP F115A mutant. The description is as above. In kind it is cell-based. More on the design: expressed in transfected cells; transient, pMT4. Particulars: read-out: EC50 of agonist U46619 (calcium mobilized), transiently transfected HEK293T cells, mean ± S.E. On the procedure: as §1, with “immunoblots. For intracellular calcium determination assays and immunofluorescence imaging, HEK293T cells were used.” for “immunoblots.”
as §3

Another test has as its target T3, TP A160S mutant (Homo sapiens, UniProt P21731, A160S).
T3 construct: expressed in transfected cells; HEK293T (calcium assays)
T3 sequence (P21731 1-343 A160S): T1 sequence (P21731 1-343 F115A/A160V) with A115F, V160S
The test can be described thus: Heterologous competition binding, unlabeled U46619 against 4 nM [3H] SQ 29,548. Particulars: read-out: Ki of agonist U46619, 4 nM [3H] SQ 29,548, 2 hr room temperature, Cheng-Prusoff from IC50. On the procedure: Amino acid substitutions were introduced into the synthetic TPα gene carried by the expression vector pMT4 as described previously, [29]. DNA sequences of all the mutated genes were verified by automated DNA sequencing. To minimize variations in transfection efficiency, the total amount transfected DNA was kept constant in all cases at 1 µg of DNA per 7×10^5 cells. The wild type TP or mutant genes were expressed in COS-1 cells using a DEAE-dextran based transient transfection method, [29], and in HEK293T cells using lipofectamine 2000 (Invitrogen). Except unless specified, the membranes prepared from COS-1 cells were used for radioligand binding assays and immunoblots. For intracellular calcium determination assays and immunofluorescence imaging, HEK293T cells were used. For transient transfections of HEK293T cells using the plasmid pMT4, lipofectamine 2000 (Invitrogen) mediated transfection was used as described by the manufacturer. Membranes were prepared using Buffers A and B and as described previously, [29]. The protein concentration in the resuspended membrane pellet was determined using a modified DC protein assay kit from Bio-Rad Laboratories (Hercules, CA).
These were carried out in Buffer C for 60 min at room temperature, using 2 to 20 µg of membrane protein and different concentrations of [^3H] […] Binding of [^3H] […] Competition binding assays were performed using 4 nM [^3H] […] Binding was terminated by filtering under vacuum on GF/A filters (Millipore). Filter-bound radioactivity was measured using a liquid scintillation counter. Equilibrium dissociation constants (Kd) were determined from saturation isotherms using PRISM software version 5.0 (GraphPad Software Inc, San Diego, CA, USA). The Ki values were calculated from the IC50, using the equation of Cheng and Prusoff by PRISM software version 5.0. Where applicable, statistical significance of the data was evaluated using analysis of variance (ANOVA) and/or unpaired t test.

Structures are written as SMILES. Where a chain is given by its changes, count along the chain named.

Turning to `O=C(O)CCC/C=C\C[C@@H]1[C@H](CNNC(=O)Nc2ccccc2)[C@H]2CC[C@@H]1O2` [SQ 29,548], the “Bmax, binding maximum of the ligand SQ 29,548 for the receptor” value amounted to 2.1 ± 0.4 pmol/mg in test [1] and 1.8 ± 0.2 pmol/mg on TP F115A mutant [2].
As a reminder, the EC50 is the concentration that produces a half-maximal response. As a reminder, the Ki is a measure of affinity in units of concentration, obtained from inhibition or displacement. On to `CCCCC[C@H](O)/C=C/[C@@H]1[C@@H](C/C=C\CCCC(=O)O)[C@H]2CO[C@@H]1C2` [U46619], for which the concentration for a half-maximal effect (EC50) came to 43.5 ± 1.5 nM in test [3] and 2 ± 0.3 nM at TP F115A mutant [4]. Moreover, the Ki on TP A160S mutant came to 1520 nM.
